Laboratory results taken from patent US9604987B2, “Synthesis of autophagy inducing compound and the uses thereof” (Hong Kong Baptist University, priority 2012, dated 2017).

Test system: mouse primary cortical neurons
Experiment: Autophagy in primary mouse cortical neurons (LC3-II blot, GFP-LC3 puncta)
Assay type: cell-based, E17 embryonic ICR mice
Settings: 24 hours
Experimental: Primary neuron culture. The E17 embryonic pup brains were dissected and cortices were placed in a Petri dish containing ice cold EBSS, with meninges carefully removed. Tissues were digested in 5 ml of digestion solution (EBSS containing 0.5 mM EDTA (E6758, Sigma), 0.5 mg/ml Papain (3120, Worthington Biochem) and 4 mg/ml L-Cysteine (C7880, Sigma)) at 37° C. for 15 minutes. The tissue was sucked out in 1 ml of digestion solution and mixed with 3 ml of digestion inhibition solution (EBSS containing 5 mg/ml BSA (A2153, Sigma), 5 mg/ml Trypsin inhibitor (T9253, Sigma) and 10 μg/ml DNase (DN25, Sigma)). The mixed tissue solution was thoroughly mixed to dissociate the cells and then transferred to a 50 ml tube through a 70 μm filter. The cells were collected by centrifugation and re-suspended in seeding medium (DMEM containing 10% FBS and 10% horse serum). […]
To further confirm the pro-autophagic effect of Cory B on primary neurons, mouse primary cortical neurons isolated from E17 embryonic ICR mice are used in this study. […] Neurons are fixed in 4% paraformaldehyde and analyzed under a confocal microscope. GFP-LC3 puncta number in each GFP positive neuron is counted and at least 20 neurons in each group is counted. […]

Structure (SMILES): CC[C@@H]1CN2CC[C@]3(C(=O)Nc4ccccc43)C2C[C@@H]1C(=COC)C(=O)OC (some centres unmarked) [Cory B, Corynoxine B]
- LC3-II level (0-50 μM): dose-dependent increase of LC3-II
- GFP puncta in neurons transfected with GFP-LC3 construct (50 μM): induces massive formation of GFP puncta
